The text below walks through data of ChEMBL document CHEMBL1201862, “PubChem BioAssay data set” (2004).

Among the test systems are MCF7; ACHN; MDA-MB-435; COLO 205; CCRF-CEM; SW-620; NCI-H460; NCI-H23; IGROV-1; UACC-62; M14; MOLT-4; MDA-N; U-251; EKVX; HCC 2998; HCT-116; SF-295; RPMI-8226; NCI-H522.
What all share (test): growth of human tumour cells (NCI), 48 h

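Following 48 hours of exposure in 96-well plates, responses at five concentrations were used to interpolate endpoints linearly. At the GI50, growth is halved.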 Active and inactive are the calls of the source. Cut-off read from the data, not from the text of the source: active = GI50 up to about 1.1 µM and inactive = higher. Where only a bound is given, the exact number is not on record here.

On to `CC(=O)Nc1ccc(-c2nc3ccccc3s2)cc1I`, for which the GI50 in the experiment with MCF7 was 0.0463 µM (active); in the experiment with ACHN, 26.5 µM (inactive); with MDA-MB-435 it was > 94.8 µM (inactive); in the experiment with COLO 205 it was 89.3 µM (inactive); with CCRF-CEM, > 100 µM (inactive); in the experiment on SW-620, > 100 µM (inactive). For the same compound, the GI50 with NCI-H460 is 49.4 µM (inactive); with NCI-H23, 18 µM (inactive); with IGROV-1, 0.0184 µM (active); with UACC-62 it was 22.6 µM (inactive); with M14 it was 36.8 µM (inactive); in the experiment on MOLT-4 it was > 100 µM (inactive). For the same compound, the GI50 in the experiment on MDA-N was > 100 µM (inactive); in the experiment on U-251, 25.1 µM (inactive); with EKVX, 7.87 µM (inactive); with HCC 2998, 0.488 µM (active); in the experiment with HCT-116, 1.16 µM (inactive); in the experiment on SF-295 it was 29.4 µM (inactive). For the same compound, the figures for the GI50 with RPMI-8226 and in the experiment with NCI-H522 were > 100 µM (inactive) and 42.2 µM (inactive), respectively.

For `c1ccc2c(c1)Oc1cccc3cccc-2c13`, the GI50 in the experiment with MCF7, with ACHN, in the experiment on MDA-MB-435, in the experiment with COLO 205, in the experiment on CCRF-CEM and in the experiment on SW-620 was > 100 µM (inactive) each time. In addition, the GI50 is > 100 µM (inactive) in the experiment on NCI-H460; > 100 µM (inactive) in the experiment with NCI-H23; > 100 µM (inactive) with IGROV-1; > 100 µM (inactive) in the experiment on UACC-62; > 100 µM (inactive) with M14; 98.2 µM (inactive) in the experiment with MOLT-4. Besides, the GI50 with MDA-N, in the experiment with U-251, with EKVX, in the experiment with HCC 2998, with HCT-116 and in the experiment with SF-295 was > 100 µM (inactive) throughout. Moreover, the GI50 in the experiment on RPMI-8226 and in the experiment on NCI-H522 was > 100 µM (inactive) in each case.

For the compound `COc1ccc(N2C(=O)C3c4[nH]c5ccc(OCc6ccccc6)cc5c4C4CCC(C(C)C)CC4C3C2=O)cc1` (stereo not given), the GI50 in the experiment with MCF7 was 99.1 µM (inactive); in the experiment on ACHN it was 10.8 µM (inactive); in the experiment with MDA-MB-435 it was > 100 µM (inactive); in the experiment on COLO 205, > 100 µM (inactive); in the experiment with CCRF-CEM, 12.6 µM (inactive); in the experiment with SW-620 it was > 100 µM (inactive). Besides, the GI50 in the experiment on NCI-H460 is 13.9 µM (inactive); in the experiment with NCI-H23 it was 17.4 µM (inactive); in the experiment with IGROV-1 it was > 39.6 µM (inactive); with UACC-62 it was 29 µM (inactive); with M14, > 48.6 µM (inactive); in the experiment on MOLT-4, 18.2 µM (inactive). Besides, the GI50 is > 100 µM (inactive) in the experiment on MDA-N; 10.8 µM (inactive) in the experiment with U-251; 11 µM (inactive) in the experiment with EKVX; > 100 µM (inactive) in the experiment on HCC 2998; > 45.8 µM (inactive) with HCT-116; 6.4 µM (inactive) with SF-295. Further, the GI50 is > 72.6 µM (inactive) in the experiment on RPMI-8226 and 12.3 µM (inactive) in the experiment with NCI-H522.

As for `CCN(CCCN(CC)C(=O)Nc1ccccc1)C(=O)Nc1ccccc1`, the GI50 in the experiment with MCF7, with ACHN, in the experiment on MDA-MB-435, in the experiment on COLO 205, in the experiment with CCRF-CEM and in the experiment with SW-620 was > 100 µM (inactive) in each case. For the same compound, the GI50 in the experiment on NCI-H460, in the experiment with NCI-H23, with IGROV-1, in the experiment with UACC-62, in the experiment on M14 and in the experiment on MOLT-4 was > 100 µM (inactive) each time. The GI50 with MDA-N, with U-251, in the experiment on EKVX, in the experiment with HCC 2998, in the experiment with HCT-116 and in the experiment on SF-295 was > 100 µM (inactive) in each case. Besides, the GI50 in the experiment on RPMI-8226 and with NCI-H522 was > 100 µM (inactive) in each case.

In the case of `O=c1cc(-c2ccccc2)c2ccc(O)c(CN(CCCl)CCCl)c2o1`, the GI50 with MCF7 was 17.2 µM (inactive); with ACHN, 20.4 µM (inactive); in the experiment on MDA-MB-435, 19.9 µM (inactive); in the experiment with COLO 205 it was 12.4 µM (inactive); with CCRF-CEM, 3.07 µM (inactive); with SW-620 it was 18.8 µM (inactive). For the same compound, the GI50 in the experiment with NCI-H460 was 17.8 µM (inactive); with NCI-H23 it was 19.5 µM (inactive); in the experiment with IGROV-1, 15.5 µM (inactive); in the experiment on UACC-62 it was 16.9 µM (inactive); with M14 it was 20.1 µM (inactive); in the experiment with MOLT-4, 5.75 µM (inactive). Further, the GI50 is 17.6 µM (inactive) in the experiment with MDA-N; 22.1 µM (inactive) with U-251; 25.5 µM (inactive) in the experiment with EKVX; 12.3 µM (inactive) with HCC 2998; 19.1 µM (inactive) in the experiment with HCT-116; 11 µM (inactive) in the experiment on SF-295. The GI50 in the experiment with RPMI-8226 was 12.6 µM (inactive); in the experiment on NCI-H522, 14.7 µM (inactive).

`O=c1cc(/N=N\c2ccc(Br)cc2)[nH]c(=S)[nH]1`: the GI50 in the experiment on MCF7 was 15.8 µM (inactive); in the experiment on ACHN, 15.9 µM (inactive); in the experiment on MDA-MB-435, 19.7 µM (inactive); in the experiment with COLO 205 it was 21.9 µM (inactive); in the experiment with CCRF-CEM, 14.6 µM (inactive); in the experiment with SW-620 it was 27.2 µM (inactive). The GI50 with NCI-H460 is 32.7 µM (inactive); in the experiment on NCI-H23, 32.7 µM (inactive); with IGROV-1, 53.1 µM (inactive); with UACC-62, 78.3 µM (inactive); with M14 it was 15.7 µM (inactive); in the experiment with MOLT-4, 24.5 µM (inactive). The GI50 in the experiment with MDA-N was 49.5 µM (inactive); in the experiment with U-251, 36.4 µM (inactive); in the experiment with EKVX it was 19.8 µM (inactive); in the experiment with HCC 2998, 17.8 µM (inactive); with HCT-116, 18.2 µM (inactive); with SF-295, > 100 µM (inactive). The GI50 in the experiment on RPMI-8226 was 15.9 µM (inactive); with NCI-H522 it was 15.5 µM (inactive).

On to `CCOC(=O)c1[nH]c(-c2[nH]c(-c3[nH]c(-c4[nH]c(C(=O)OCC)c(C)c4C(=O)OCC)c(C(=O)OCC)c3C)c(C)c2C(=O)OCC)c(C(=O)OCC)c1C`, for which the GI50 with MCF7, with ACHN, with MDA-MB-435, with COLO 205, with CCRF-CEM and in the experiment on SW-620 was > 100 µM (inactive) in each case. For the same compound, the GI50 with NCI-H460, with NCI-H23, with IGROV-1, with UACC-62, in the experiment with M14 and in the experiment on MOLT-4 was > 100 µM (inactive) in each case. In addition, the GI50 in the experiment with MDA-N, in the experiment with U-251, with EKVX, with HCC 2998, in the experiment with HCT-116 and in the experiment on SF-295 was > 100 µM (inactive) each time. Moreover, the GI50 with RPMI-8226 and in the experiment with NCI-H522 was > 100 µM (inactive) throughout.

For the compound `COC1(OC)C2(Cl)CCC1(Cl)C(OC(C)=O)C2` (stereo not given), the GI50 in the experiment with MCF7, in the experiment on ACHN, in the experiment with MDA-MB-435, in the experiment on COLO 205, in the experiment with CCRF-CEM and in the experiment with SW-620 was > 100 µM (inactive) in each case. Besides, the GI50 with NCI-H460 is > 100 µM (inactive); with NCI-H23, > 100 µM (inactive); with IGROV-1, > 100 µM (inactive); in the experiment on UACC-62, > 90.2 µM (inactive); in the experiment on M14 it was > 100 µM (inactive); in the experiment on MOLT-4, > 100 µM (inactive). In addition, the GI50 with MDA-N, with U-251, in the experiment with EKVX, with HCC 2998, with HCT-116 and in the experiment on SF-295 was > 100 µM (inactive) in each case. Also, the values for the GI50 in the experiment on RPMI-8226 and with NCI-H522 were > 100 µM (inactive) and > 74.1 µM (inactive), respectively.

Turning to `N/C(=N\O)N/N=C/c1ccc2c(c1)OCO2`, the GI50 was 28.6 µM (inactive) with MCF7; 20 µM (inactive) in the experiment with ACHN; 31.4 µM (inactive) in the experiment on MDA-MB-435; 4.74 µM (inactive) in the experiment with COLO 205; 19.4 µM (inactive) in the experiment on CCRF-CEM; 63.4 µM (inactive) with SW-620. Also, the GI50 with NCI-H460 was 27 µM (inactive); in the experiment with NCI-H23, 27 µM (inactive); in the experiment on IGROV-1, 25 µM (inactive); in the experiment with UACC-62 it was 13.5 µM (inactive); in the experiment with M14 it was 13.5 µM (inactive); with MOLT-4, 24.8 µM (inactive). The GI50 was 36.5 µM (inactive) in the experiment on MDA-N; 36.6 µM (inactive) with U-251; 8.85 µM (inactive) in the experiment on EKVX; 35.6 µM (inactive) in the experiment with HCC 2998; 21.1 µM (inactive) in the experiment with HCT-116; 33.9 µM (inactive) in the experiment with SF-295. Further, the values for the GI50 in the experiment with RPMI-8226 and with NCI-H522 were 21.2 µM (inactive) and 38.5 µM (inactive), respectively.

As to `O=c1c2ccc(Cl)cc2oc2c(CSc3ccccc3)cccc12`, the GI50 in the experiment on MCF7 was 29.1 µM (inactive); in the experiment with ACHN it was > 39.2 µM (inactive); with MDA-MB-435, > 21.9 µM (inactive); with COLO 205, > 70 µM (inactive); with CCRF-CEM, 10.1 µM (inactive); with SW-620 it was 21.5 µM (inactive). The GI50 in the experiment on NCI-H460 was 23.8 µM (inactive); in the experiment on NCI-H23, 28.4 µM (inactive); in the experiment on IGROV-1, > 24 µM (inactive); with UACC-62, > 41.4 µM (inactive); in the experiment on M14, > 42.5 µM (inactive); with MOLT-4, 15.8 µM (inactive). In addition, the GI50 in the experiment with MDA-N is 31.7 µM (inactive); in the experiment with U-251, 39.9 µM (inactive); with EKVX it was > 50.4 µM (inactive); in the experiment with HCC 2998, > 54.1 µM (inactive); with HCT-116, 28.2 µM (inactive); in the experiment on SF-295, > 43.9 µM (inactive). Besides, the figures for the GI50 in the experiment on RPMI-8226 and with NCI-H522 were 13.2 µM (inactive) and > 32.5 µM (inactive), respectively.
